From patent US20240316059A1, “PEPTIDE DRUG CONJUGATES” (Oncopeptides AB, priority 2021, published 2024)
pIC50: −log10 of the molar value. Where two headings read alike, the source gives them in different places.

Legend:
MM.1S cells [1] = assay: In vitro cytotoxic potency in MM.1S cell viability assay (CellTiter-Glo); assay type: cell-based, human; settings: Homo sapiens, MM1.S, 72 h
Outline: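 Log-phase MM.1S cells in supplemented RPMI 1640 were seeded at 100000 cells/mL with compound (0.2% DMSO final). After 72 h at 37 °C in CO2, viability was measured by CellTiter-Glo 2.0 luminescence.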

U937 = assay: In vitro cytotoxicity, U937 (Histiocytic Lymphoma); assay type: cell-based; settings: Homo sapiens, read-out: Cytotoxicity IC50, U937
Method: (§1) All cells were cultivated in RPMI medium 1640 (IX). All media was supplemented with 10 μg/μl penicillin/streptomycin, 10% heat inactivated FBS, 0.1 mM Sodium Pyruvate, 1×MEM NEAA (ThermoFisher) and 1 mM HEPES. The DERL-2 cells had higher FBS (20%) and 40 ng/mL IL-2 was added. hPBMCs were thawed and allowed to acclimatise overnight and then stimulated with 10 μg/mL PHA-M and 40 ng/mL IL-2 for 4 hours before being exposed to test compounds. All cells, except for hPBMCs, were grown to reach log phase before being exposed to the test compounds.
(§2) Test compounds were dissolved in 100% DMSO and added to a 384 assay plate. Additional DMSO was added to maintain the same final DMSO concentration (0.2%) in all wells. 25 μL cell suspension with a concentration of 100000 cells/mL was added to each well. The cells were cultured in a CO2 incubator at 37° C. for 72 h. Plates were equilibrated to room temperature for 30 minutes before adding 20 μL CellTiter-Glo® 2.0 (Promega) reagent to all wells. The plate was then allowed to stabilize for 20 minutes before recording the luminescence (Em filter 700 nm) in an Envision plate reader.

RPMI-8226 = assay: In vitro cytotoxicity, RPMI-8226 (Multiple Myeloma, resistant); assay type: cell-based; settings: Homo sapiens, read-out: Cytotoxicity IC50, RPMI-8226
Method: as §1, §2

SK-MM-1 = assay: In vitro cytotoxicity, SK-MM-1 (Plasma Cell Leukemia); assay type: cell-based; settings: Homo sapiens, 72 h, read-out: Cytotoxicity IC50, SK-MM-1
Method: as §1, §2

DOHH-2 = assay: In vitro cytotoxicity, DOHH-2 (B Cell Lymphoma); assay type: cell-based; settings: Homo sapiens, read-out: Cytotoxicity IC50, DOHH-2
Method: as §1, §2

HG-3 = assay: In vitro cytotoxicity, HG-3 (Chronic Lymphocytic Leukemia); assay type: cell-based; settings: Homo sapiens, read-out: Cytotoxicity IC50, HG-3
Method: as §1, §2

SC-1 = assay: In vitro cytotoxicity, SC-1 (B cell Lymphoma); assay type: cell-based; settings: Homo sapiens, read-out: Cytotoxicity IC50, SC-1
Method: as §1, §2

SU-DHL-8 = assay: In vitro cytotoxicity, SU-DHL-8 (B-cell non-Hodgkin Lymphoma); assay type: cell-based; settings: Homo sapiens, read-out: Cytotoxicity IC50, SU-DHL-8
Method: as §1, §2

Toledo = assay: In vitro cytotoxicity, Toledo (Diffuse Large B Cell Lymphoma); assay type: cell-based; settings: Homo sapiens, 72 h
Method: as §1, §2

DERL-2 = assay: In vitro cytotoxicity, DERL-2 (T cell Lymphoma); assay type: cell-based; settings: Homo sapiens, 72 h
Method: as §1, §2

SUP-T1 = assay: In vitro cytotoxicity, SUP-T1 (T cell Lymphoma); assay type: cell-based; settings: Homo sapiens, read-out: Cytotoxicity IC50, SUP-T1
Method: as §1, §2

[2] = In vitro cytotoxicity, human peripheral blood mononuclear cells; assay type: cell-based; settings: CellTiter-Glo 2.0, stimulated with PHA-M and IL-2, read-out: Cytotoxicity IC50, hPBMC
Method: as §1, §2

[3] = system: DNA prepared from MM.1S cells (nuclear HPRT and mitochondrial DNA); assay: Direct DNA damage, PCR amplification of treated DNA (HPRT and mtDNA primers); assay type: biochemical, human; settings: 0.25 μM compound, 30 minutes, 37° C., 1 μg DNA
Method: Method: DNA was prepared from MM.1S cells by QIAGEN genomic tip 20/G according to protocol described in Furda et al., Methods Mol Biol, 2012. 1 μg of DNA was treated with 0.25 μM compound for 30 minutes at 37° C. DMSO was used as control treatment. 20 ng of the treated DNA was PCR amplified using Phusion Hot Start II High Fidelity PCR Master Mix (Thermo Scientific) and primers directed to either HPRT or primers directed to mitochondrial DNA (mtDNA) was used, generating 10.4 or 8.9 kb fragments, respectively. The PCR reactions were separated on a 1% agarose gel and visualized by ChemiDoc™ MP Imaging System (BioRad). Example compounds 1, 2 and 38 were investigated, as were compounds 18 and 20, which are metabolites of compound 1. They were compared with bendamustine, melphalan and DMSO control. The results for compounds 1, 2, 18 and 20 with the HPRT primers are shown in FIG. 4(A); the results with the mtDNA primers are shown in FIG. 4(B).

AMO-1 = assay: In vitro cytotoxicity, AMO-1 (Multiple Myeloma); assay type: cell-based; settings: Homo sapiens, AMO1; 72 h, CellTiter-Glo 2.0; read-out: Cytotoxicity IC50, AMO-1
Method: as §1, §2

EJM = assay: In vitro cytotoxicity, EJM (Multiple Myeloma); assay type: cell-based; settings: Homo sapiens, 72 h, CellTiter-Glo 2.0, read-out: Cytotoxicity IC50, EJM
Method: as §1, §2

KMS-12-BM = assay: In vitro cytotoxicity, KMS-12-BM (Multiple Myeloma); assay type: cell-based; settings: Homo sapiens, 72 h, CellTiter-Glo 2.0, read-out: Cytotoxicity IC50, KMS-12-BM
Method: as §1, §2

OPM-2 = assay: In vitro cytotoxicity, OPM-2 (Multiple Myeloma); assay type: cell-based; settings: Homo sapiens, OPM-2; 72 h, CellTiter-Glo 2.0; read-out: Cytotoxicity IC50, OPM-2
Method: as §1, §2

U266 = assay: In vitro cytotoxicity, U266 (Multiple Myeloma); assay type: cell-based; settings: Homo sapiens, U-266; 72 h, CellTiter-Glo 2.0; read-out: Cytotoxicity IC50, U266
Method: as §1, §2

[4] = In vitro cytotoxicity, BJ fibroblasts (normal cells); assay type: cell-based; settings: human, CellTiter-Glo 2.0
Method: as §1, §2

THP-1 = assay: In vitro cytotoxicity, THP-1 (Acute Myeloid Leukemia); assay type: cell-based; settings: Homo sapiens, THP-1; 72 h, CellTiter-Glo 2.0; read-out: Cytotoxicity IC50, THP-1
Method: as §1, §2

MM.1S cells [5] = assay: Cellular retention/efflux: intracellular and extracellular concentrations by LC-MS/MS; assay type: in vitro ADME, human; settings: metabolites measured after treatment with the parent Example compound
Method: Methods: MMA1S cells at 2×10^6 cells/mL were seeded at 250 μL per well in a 96-well plate. Cells were incubated in the presence of a test compound for 5, 15, and 60 min before pelleting cells by centrifugation at +4° C. for 5 min. Cell media was immediately harvested to a second plate and stored at −80° C. until further analysis. Pelleted cells were washed once with ice cold PBS before storage at −80° C. until further analysis.
Cells were lysed and protein in the media were precipitated using acetonitrile dimethylformamide, 9:1 containing internal standard. Samples were centrifuged and the supernatant was analyzed with LC-MS/MS (ACQUITY UPLC-Xevo TQ-S micro) to determine compound concentration.
Example compound 1, bendamustine and melphalan were used as test compounds.
Method: Method described in Biological example 3.
Example compounds 1, 2, 3, 4, 6, 7 and 10 were investigated. Intracellular metabolites are formed from all compounds tested. The compound used for cell treatment was metabolised to the ester-hydrolysed compound (here called Metabolite A) and to the amide-hydrolysed compound (called Metabolite B). The example compound structures and the structures of the two metabolites for the respective compounds were as shown in Table 4. The Metabolites B formed under the conditions tested were compounds with structure as Examples 17 and 18: […]

[6] = read-out: Cytotoxicity IC50, MM.1S
[7] = read-out: Cytotoxicity IC50, Toledo
[8] = read-out: Cytotoxicity IC50, DERL-2
[9] = RPMI-8226, 72 h, CellTiter-Glo 2.0

SMILES | pIC50 (MM.1S cells [1]; [6]) | pIC50 (MM.1S cells [1]; read-out: MM.1S IC50) | pIC50 (U937; U-937, 72 h) | pIC50 (RPMI-8226; RPMI-8226, 72 h) | pIC50 (SK-MM-1) | pIC50 (DOHH-2; DOHH-2, 72 h) | pIC50 (HG-3; HG-3, 72 h) | pIC50 (SC-1; SC-1, 72 h) | pIC50 (SU-DHL-8; SU-DHL-8, 72 h) | pIC50 (Toledo; [7]) | pIC50 (DERL-2; [8]) | pIC50 (SUP-T1; SUP-T1, 72 h) | IC50 at 72 h [2] | DNA damage on nuclear and mitochondrial DNA (PCR band) [3] | pIC50 (AMO-1) | pIC50 (EJM) | pIC50 (KMS-12-BM) | pIC50 (OPM-2) | pIC50 (RPMI-8226; [9]) | pIC50 (U266) | also measured
CCOC(=O)[C@H](Cc1ccc(F)cc1)NC(=O)[C@@H](N)CCc1nc2cc(N(CCCl)CCCl)ccc2n1C [Example 2, Ethyl (2S)-2-[[(2S)-2-amino-4-[5-[bis(2-chloroethyl)amino]-1-methyl-benzimidazol-2-yl]butanoyl]amino]-3-(4-fluorophenyl)propanoate] | 8.11 | 8.11 | 7.85 | 7.38 | 7.42 | 8.28 | 7.59 | 7.68 | 7.69 | 8.18 | 8.11 | 7.75 | 7.5 nM | strong DNA damaging effect |  |  |  |  |  |  | 
CCOC(=O)[C@H](Cc1nc2cc(N(CCCl)CCCl)ccc2n1C)NC(=O)[C@@H](N)CC(C)C [Example 10, Ethyl (2S)-2-[[(2S)-2-amino-4-methyl-pentanoyl]amino]-3-[5-[bis(2-chloroethyl)amino]-1-methyl-benzimidazol-2-yl]propanoate] | 7.72 | 7.72 | 7.71 | 6.47 | 7.20 | 7.19 | 7.15 | 6.77 | 7.66 | 8.07 | 7.65 | 7.45 | 26.4 nM |  |  |  |  |  |  |  | 
CCOC(=O)[C@H](Cc1ccc(F)cc1)NC(=O)[C@H](CCc1nc2cc(N(CCCl)CCCl)ccc2n1C)NC(C)=O [Example 34, Ethyl (2S)-2-[[(2S)-2-acetamido-4-[5-[bis(2-chloroethyl)amino]-1-methyl-benzimidazol-2-yl]butanoyl]amino]-3-(4-fluorophenyl)propanoate] | 7.17 | 7.17 |  |  |  |  |  |  |  |  |  |  |  |  | 6.12 | 6.20 | 6.98 | 6.02 | 5.84 | 6.57 | pIC50 (U937; U-937, 72 h, CellTiter-Glo 2.0): 6.40; pIC50 (SK-MM-1; CellTiter-Glo 2.0): 6.22; pIC50 (DOHH-2; DOHH-2, 72 h, CellTiter-Glo 2.0): 6.27; pIC50 (HG-3; HG-3, 72 h, CellTiter-Glo 2.0): 6.05; pIC50 (SC-1; SC-1, 72 h, CellTiter-Glo 2.0): 5.97; pIC50 (SU-DHL-8; SU-DHL-8, 72 h, CellTiter-Glo 2.0): 6.69; pIC50 (Toledo; CellTiter-Glo 2.0, read-out: Cytotoxicity IC50, Toledo): 6.48; IC50 at 72 h [4]: > 2000 nM
N[C@@H](Cc1ccc(N(CCCl)CCCl)cc1)C(=O)O [Melphalan, melphalan, reference compound] | 5.37 | 5.37 |  |  |  |  |  |  |  |  |  |  | 3600 nM | no or very minor effect on DNA damage | 5.08 | 4.40 | 5.01 | 4.99 | 4.49 | 4.72 | pIC50 (THP-1): 5.37; pIC50 (SC-1; SC-1, 72 h, CellTiter-Glo 2.0): 5.06; pIC50 (DERL-2; CellTiter-Glo 2.0, 20% FBS, 40 ng/mL IL-2, read-out: Cytotoxicity IC50, DERL-2): 5.73; pIC50 (SUP-T1; SUP-T1, 72 h, CellTiter-Glo 2.0): 5.53; IC50 at 72 h [4]: 104000 nM; Intracellular concentration (in words) (MM.1S cells [5]; MM.1S cells incubated with test compound 5, 15, 60 min): low intracellular concentration; Extracellular concentration (in words) (MM.1S cells [5]; media of MM.1S cells incubated with test compound 5, 15, 60 min): high and constant throughout the experiment
